Data: US20030171393A1, “Drugs for sex dysfunctions” (priority 2000, published 2003)
Counter-ions that a name gives are not always drawn.

Key:
[1] = tested on: aorta; assay: Relaxation in vitro of aorta tissue precontracted with phenylephrine (undesired hypotensive effect); format: cell-based, White New Zealand rabbits; details: tissue precontracted with phenylephrine 10 μM
Description: (§1) The relaxing effect of the tested drugs on carvernous body tissues has been evaluated with experiments in vitro as a measure of the inhibiting action on the impotence, and on aorta tissues as expression of the undesired hypotensive effect.
(§2) White New Zealand rabbits were sacrificed, cavernous body and aorta specimens were taken and suitably prepared for the determination of the myorelaxing activity in vitro, according to the procedure described by J. Jeremy (Br. J. Urology 79,958-63,1997).
(§3) The tissues were precontracted with phenylephrine (10 μM) and the relaxation was determined in the presence of the compounds object of the invention.
(§4) The 2-(acetyloxy)benzoic acid 6-(nitroxy methyl)-2-methylpyridyl ester hydrochloride (NCX 4050) is prepared as described in patent application PCT/EP 00/01454 (Ex. 1) , the sildenafil nitrate has been prepared as described in patent application WO 99/67231 (Ex. 3). The products used in the experiment were dissolved in dimethylsulphoxide, except sodium nitroprussiate which was dissolved in distilled water.

[2] = tested on: cavernous body; assay: Relaxation in vitro of cavernous body tissue precontracted with phenylephrine; format: cell-based, White New Zealand rabbits; details: for Cavernous body % relaxation: tissue precontracted with phenylephrine 10 μM; for Power ratio: ratio between myorelaxing effect on cavernous body and effect on aorta
Description: as §1, §2, §3, §4

[3] = tested on: aorta tissues pretreated with sodium nitroprussiate; assay: Aorta relaxation in vitro in the presence of the NO-donor sodium nitroprussiate; format: cell-based, white New Zealand rabbits; details: 10^−7 M; for Aorta relaxation: strips first treated with sodium nitroprussiate 10^−7 M, percentage with respect to the initial sodium nitroprussiate treatment
Experimental: The experiment was carried out as described in the previous Example, by using aorta tissues taken from white New Zealand rabbits.

With `CC(=O)Oc1ccccc1C(=O)Oc1ccc(CO[N+](=O)[O-])nc1C.Cl` [NCX 4050, 2-(acetyloxy)benzoic acid 6-(nitroxymethyl)-2-methylpyridyl ester hydrochloride] the Aorta % ([1]; concentration 10^-6 M) was 80%, the “Cavernous body % relaxation” value ([2]; concentration 10^-6 M) was 80% and the Power ratio ([2]; concentration 10^-6 M) was 1.

With `CCCc1nn(C)c2c(=O)[nH]c(-c3cc(S(=O)(=O)N4CCN(C)CC4)ccc3OCC)nc12` [Sildenafil Citrate, sildenafil citrate, reference compound] the Aorta % ([1]; concentration 3 × 10^-5 M) was 75%, the “Cavernous body % relaxation” value ([2]; concentration 3 × 10^-5 M) was 50% and the Aorta relaxation [3] was 170%.

In the case of sildenafil nitrate, the Aorta % ([1]; concentration 10^-6 M) is reported as 20%, the “Cavernous body % relaxation” value ([2]; concentration 10^-6 M) is reported as 100% and the Power ratio ([2]; concentration 10^-6 M) is reported as 5. The Power ratio ([2]; concentration 10^-6 M, listed as sildenafil nitrate) was “clearly in favour of the myorelaxing effect”, the “Strengthening of the relaxing effect induced by sodium nitroprussiate (hypotensive effect), in words” value ([3]; aorta strips pretreated with sodium nitroprussiate 10^−7 M) was “lower strengthening of the relaxing effect induced by sodium nitroprussiate compared with the sildenafil citrate” and the Aorta relaxation [3] was 120%.
